Test results reported in PubChem BioAssay AID1963986 (Molecular Pharmacology Branch, DTP, NCI, 2024).

System: 171881-019-R-J1-PDC tumor spheroid viability
Assay: Anticancer human tumor 171881-019-R-J1-PDC patient-derived invasive breast carcinoma cell line growth inhibition [PI3K]
Conditions: spheroids with HUVEC and MSC; for IC50: curve of first compound; for viability, T/C: stronger effect = lower value
Outline: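 Tumor cells were combined with HUVEC and MSCs into spheroids, then dosed with PI3K-inhibitor combinations over half-log ranges capped near clinical Cmax or 10 microM.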

[1] = second compound 0.00316 µM, first compound 0.0316 µM
[2] = second compound 0.00316 µM, first compound 0.1 µM
[3] = second compound 0.01 µM, first compound 0.0316 µM
[4] = second compound 0.01 µM, first compound 0.1 µM
[5] = second compound 0.0316 µM, first compound 0.0316 µM
[6] = second compound 0.0316 µM, first compound 0.1 µM
[7] = second compound 0.1 µM, first compound 0.0316 µM
[8] = second compound 0.1 µM, first compound 0.1 µM
[9] = second compound 0.316 µM, first compound 0.0316 µM
[10] = second compound 0.316 µM, first compound 0.1 µM
[11] = second compound 1 µM, first compound 0.0316 µM
[12] = second compound 1 µM, first compound 0.1 µM
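Also: spheroids exposed to compound for 7 days before viability read.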
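For viability, T/C in this document: 100% = DMSO vehicle-treated spheroids.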

C[C@@H](NC(=O)c1ncnc(N)c1Cl)c1ncc(C(=O)Nc2cc(C(F)(F)F)c(Cl)cn2)s1 + COc1c(OCCCN2CCOCC2)ccc2c3n(c(=NC(=O)c4cnc(N)nc4)nc12)CCN3
IC50 (second compound 0.00316 µM): 2.36 µM
IC50 (second compound 0.01 µM): 0.234 µM
IC50 (second compound 0.0316 µM): < 0.0316 µM
IC50 (second compound 0.1 µM): < 0.0316 µM
IC50 (second compound 0.316 µM): < 0.0316 µM
IC50 (second compound 1 µM): < 0.0316 µM
viability, T/C [1]: 62.5%
viability, T/C [2]: 78.9%
viability, T/C (second compound 0.00316 µM, first compound 0.316 µM): 67.5%
viability, T/C (second compound 0.00316 µM, first compound 1 µM): 62.2%
viability, T/C (second compound 0.00316 µM, first compound 3.16 µM): 45.9%
viability, T/C (second compound 0.00316 µM, first compound 10 µM): 27.2%
viability, T/C [3]: 50.9%
viability, T/C [4]: 49.9%
viability, T/C (second compound 0.01 µM, first compound 0.316 µM): 51.3%
viability, T/C (second compound 0.01 µM, first compound 1 µM): 43.4%
viability, T/C (second compound 0.01 µM, first compound 3.16 µM): 29.9%
viability, T/C (second compound 0.01 µM, first compound 10 µM): 17.9%
viability, T/C [5]: 27.5%
viability, T/C [6]: 26.9%
viability, T/C (second compound 0.0316 µM, first compound 0.316 µM): 26%
viability, T/C (second compound 0.0316 µM, first compound 1 µM): 20.8%
viability, T/C (second compound 0.0316 µM, first compound 3.16 µM): 16%
viability, T/C (second compound 0.0316 µM, first compound 10 µM): 7.51%
viability, T/C [7]: 9.3%
viability, T/C [8]: 8.92%
viability, T/C (second compound 0.1 µM, first compound 0.316 µM): 5.88%
viability, T/C (second compound 0.1 µM, first compound 1 µM): 7.2%
viability, T/C (second compound 0.1 µM, first compound 3.16 µM): 4.61%
viability, T/C (second compound 0.1 µM, first compound 10 µM): 2.13%
viability, T/C [9]: 2.53%
viability, T/C [10]: 2.04%
viability, T/C (second compound 0.316 µM, first compound 0.316 µM): 2.28%
viability, T/C (second compound 0.316 µM, first compound 1 µM): 2.25%
viability, T/C (second compound 0.316 µM, first compound 3.16 µM): 1.53%
viability, T/C (second compound 0.316 µM, first compound 10 µM): 1.06%
viability, T/C [11]: 1.22%
viability, T/C [12]: 1.54%
viability, T/C (second compound 1 µM, first compound 0.316 µM): 1.62%
viability, T/C (second compound 1 µM, first compound 1 µM): 1.3%
viability, T/C (second compound 1 µM, first compound 3.16 µM): 0.85%
viability, T/C (second compound 1 µM, first compound 10 µM): 1.04%

Cn1ncnc1[C@H]1c2n[nH]c(=O)c3cc(F)cc(c23)N[C@@H]1c1ccc(F)cc1 + COc1c(OCCCN2CCOCC2)ccc2c3n(c(=NC(=O)c4cnc(N)nc4)nc12)CCN3
IC50 (second compound 0.00316 µM): > 0.1 µM
IC50 (second compound 0.01 µM): < 0.000316 µM
IC50 (second compound 0.0316 µM): < 0.000316 µM
IC50 (second compound 0.1 µM): < 0.000316 µM
IC50 (second compound 0.316 µM): < 0.000316 µM
IC50 (second compound 1 µM): < 0.000316 µM
viability, T/C (second compound 0.00316 µM, first compound 0.000316 µM): 65.8%
viability, T/C (second compound 0.00316 µM, first compound 0.001 µM): 69.5%
viability, T/C (second compound 0.00316 µM, first compound 0.00316 µM): 62.6%
viability, T/C (second compound 0.00316 µM, first compound 0.01 µM): 75%
viability, T/C [1]: 59.7%
viability, T/C [2]: 53.5%
viability, T/C (second compound 0.01 µM, first compound 0.000316 µM): 43.3%
viability, T/C (second compound 0.01 µM, first compound 0.001 µM): 47.2%
viability, T/C (second compound 0.01 µM, first compound 0.00316 µM): 43.6%
viability, T/C (second compound 0.01 µM, first compound 0.01 µM): 49.6%
viability, T/C [3]: 41.7%
viability, T/C [4]: 42%
viability, T/C (second compound 0.0316 µM, first compound 0.000316 µM): 24.2%
viability, T/C (second compound 0.0316 µM, first compound 0.001 µM): 24.2%
viability, T/C (second compound 0.0316 µM, first compound 0.00316 µM): 21.8%
viability, T/C (second compound 0.0316 µM, first compound 0.01 µM): 24.2%
viability, T/C [5]: 23.6%
viability, T/C [6]: 20.2%
viability, T/C (second compound 0.1 µM, first compound 0.000316 µM): 7.63%
viability, T/C (second compound 0.1 µM, first compound 0.001 µM): 7.42%
viability, T/C (second compound 0.1 µM, first compound 0.00316 µM): 8.65%
viability, T/C (second compound 0.1 µM, first compound 0.01 µM): 7.87%
viability, T/C [7]: 7.14%
viability, T/C [8]: 6.55%
viability, T/C (second compound 0.316 µM, first compound 0.000316 µM): 2.06%
viability, T/C (second compound 0.316 µM, first compound 0.001 µM): 1.56%
viability, T/C (second compound 0.316 µM, first compound 0.00316 µM): 1.67%
viability, T/C (second compound 0.316 µM, first compound 0.01 µM): 1.78%
viability, T/C [9]: 2.25%
viability, T/C [10]: 1.69%
viability, T/C (second compound 1 µM, first compound 0.000316 µM): 1.89%
viability, T/C (second compound 1 µM, first compound 0.001 µM): 1.19%
viability, T/C (second compound 1 µM, first compound 0.00316 µM): 1.15%
viability, T/C (second compound 1 µM, first compound 0.01 µM): 1.21%
viability, T/C [11]: 1.01%
viability, T/C [12]: 0.97%
